Experimental data reported in patent publication US20100234390A1, “NOVEL COMPOUND AND THEIR USE” (priority 2007, published 2010).
≈ marks a conversion by molar mass, not a printed value.

What was measured:
Assay in all cases: Agar dilution MIC
Settings in all cases: 16-20 hours; for Antimicrobial Screening (MIC): 35° C.
[1] = test system: S. haemolyticus MRO 02064; assay type: cell-based
Procedure: (§1) Briefly, the compounds of invention were weighed, dissolved in dimethyl sulfoxide, serially two fold diluted in the same solvent and then incorporated into molten Mueller Hinton Agar (MHA) in a petridish just before solidification, with each petridish containing a different concentration of a compound.
(§2) The bacterial inoculum was prepared by picking 3 to 5 well isolated bacterial colonies with the same morphological appearance from an 18-24 hours old culture with an inoculating loop, transferring the growth to a tube containing 3 mL of normal saline and adjusting the turbidity of the saline suspension to 0.5 Mc Farland Turbidity Standard equivalent to a bacterial population of 1.5×10^8 colony forming units (CFU) per mL of suspension. The suspension was diluted 1:10 in saline (i.e. 0.5 mL suspension 4.5 mL saline) to get a bacterial population of 1.5×10^7 CFU/mL as inoculum.
(§3) The inoculated petridishes were incubated at 35° C. in an ambient atmosphere for 16-20 hours.

[2] = test system: S. saprophyticus MRO 02003; assay type: cell-based
Procedure: as §1, §2, §3

[3] = test system: S. epidermidis MRO 02002; assay type: cell-based
Procedure: as §1, §2, §3

[4] = test system: S. epidermidis MRO 02095; assay type: cell-based
Procedure: as §1, §2, §3

[5] = test system: S. epidermidis MRO 002046; assay type: cell-based
Procedure: as §1, §2, §3

[6] = test system: S. epidermidis MRO 02045; assay type: cell-based
Procedure: as §1, §2, §3

[7] = test system: M. catarrhalis ATCC 43617; assay type: cell-based, Moraxella catarrhalis
Procedure: as §1, §2, §3

[8] = test system: M. catarrhalis ATCC 43627; assay type: cell-based, Moraxella catarrhalis
Procedure: as §1, §2, §3

[9] = test system: M. catarrhalis ATCC 43628; assay type: cell-based, Moraxella catarrhalis
Procedure: as §1, §2, §3

[10] = test system: E. faecalis MRO 04205; assay type: cell-based, Enterococcus faecalis
Procedure: as §1, §2, §3

[11] = test system: E. faecalis MRO 04035; assay type: cell-based, Enterococcus faecalis
Procedure: as §1, §2, §3

[12] = test system: E. faecalis ATCC 51299; assay type: cell-based, Enterococcus faecalis
Procedure: as §1, §2, §3

[13] = test system: E. faecalis ATCC 29212; assay type: cell-based, Enterococcus faecalis
Procedure: as §1, §2, §3

[14] = test system: E. faecalis MRO 04050; assay type: cell-based, Enterococcus faecalis
Procedure: as §1, §2, §3

[15] = test system: E. faecium MRO 04037; assay type: cell-based, Enterococcus faecium
Procedure: as §1, §2, §3

[16] = test system: E. faecium MRO 04198; assay type: cell-based, Enterococcus faecium
Procedure: as §1, §2, §3

[17] = test system: E. faecium MRO 04038; assay type: cell-based, Enterococcus faecium
Procedure: as §1, §2, §3

[18] = test system: E. faecium ATCC 700221; assay type: cell-based, Enterococcus faecium
Procedure: as §1, §2, §3

[19] = test system: S. aureus ATCC 43300; assay type: cell-based, Staphylococcus aureus
Procedure: as §1, §2, §3

[20] = test system: S. aureus MRO 002053; assay type: cell-based, Staphylococcus aureus
Procedure: as §1, §2, §3

[21] = test system: S. aureus MRO 0003; assay type: cell-based, Staphylococcus aureus
Procedure: as §1, §2, §3

[22] = test system: S. aureus MRO 0001; assay type: cell-based, Staphylococcus aureus
Procedure: as §1, §2, §3

[23] = test system: S. aureus MRO 00048; assay type: cell-based, Staphylococcus aureus
Procedure: as §1, §2, §3

[24] = test system: S. aureus MRO 00055; assay type: cell-based, Staphylococcus aureus
Procedure: as §1, §2, §3

[25] = test system: S. aureus ATCC 29213; assay type: cell-based, Staphylococcus aureus
Procedure: as §1, §2, §3

[26] = test system: S. aureus MRO 00013; assay type: cell-based, Staphylococcus aureus
Procedure: as §1, §2, §3

[27] = test system: S. aureus MRO 00059; assay type: cell-based, Staphylococcus aureus
Procedure: as §1, §2, §3

[28] = test system: S. aureus MRO 00030; assay type: cell-based, Staphylococcus aureus
Procedure: as §1, §2, §3

COC(=S)NC[C@H]1CN(c2ccc(N3CCN(C(=O)c4cccnc4)CC3)c(F)c2)C(=O)O1 [Example 2, (S)—O-Methyl(3-(3-fluoro-4-(4-nicotinoylpiperazin-1-yl)phenyl)-2-oxooxazolidin-5-yl)methylcarbamothioate]
Antimicrobial Screening (MIC) [1]: 1 µg/mL
Antimicrobial Screening (MIC) [2]: 1 µg/mL
Antimicrobial Screening (MIC) [3]: 1 µg/mL
Antimicrobial Screening (MIC) [4]: 1 µg/mL
Antimicrobial Screening (MIC) [5]: 1 µg/mL
Antimicrobial Screening (MIC) [6]: 1 µg/mL
Antimicrobial Screening (MIC) [7]: 1 µg/mL
Antimicrobial Screening (MIC) [8]: 4 µg/mL
Antimicrobial Screening (MIC) [9]: 4 µg/mL
Antimicrobial Screening (MIC) [10]: 0.5 µg/mL
Antimicrobial Screening (MIC) [11]: 0.5 µg/mL
Antimicrobial Screening (MIC) [12]: 0.5 µg/mL
Antimicrobial Screening (MIC) [13]: 1 µg/mL
Antimicrobial Screening (MIC) [14]: 1 µg/mL
Antimicrobial Screening (MIC) [15]: 0.5 µg/mL
Antimicrobial Screening (MIC) [16]: 0.5 µg/mL
Antimicrobial Screening (MIC) [17]: 0.5 µg/mL
Antimicrobial Screening (MIC) [18]: 0.5 µg/mL
Antimicrobial Screening (MIC) [19]: 1 µg/mL
Antimicrobial Screening (MIC) [20]: 1 µg/mL
Antimicrobial Screening (MIC) [21]: 1 µg/mL
Antimicrobial Screening (MIC) [22]: 0.5 µg/mL
Antimicrobial Screening (MIC) [23]: 0.5 µg/mL
Antimicrobial Screening (MIC) [24]: 1 µg/mL
Antimicrobial Screening (MIC) [25]: 1 µg/mL
Antimicrobial Screening (MIC) [26]: 1 µg/mL
Antimicrobial Screening (MIC) [27]: 1 µg/mL
Antimicrobial Screening (MIC) [28]: 1 µg/mL

COC(=S)NC[C@H]1CN(c2ccc(N3CCN(C(=O)C=Cc4ccc([N+](=O)[O-])o4)CC3)c(F)c2)C(=O)O1 [Example 40, (S)—O-Methyl(3-(3-fluoro-4-(4-(3-(5-nitrofuran-2-yl)acryloyl)piperazin-1-yl)phenyl)-2-oxooxazolidin-5-yl)methylcarbamothioate]
Antimicrobial Screening (MIC) [1]: 0.125 µg/mL
Antimicrobial Screening (MIC) [2]: 0.06 µg/mL
Antimicrobial Screening (MIC) [3]: 0.125 µg/mL
Antimicrobial Screening (MIC) [4]: 0.06 µg/mL
Antimicrobial Screening (MIC) [5]: <0.03 µg/mL
Antimicrobial Screening (MIC) [6]: <0.03 µg/mL
Antimicrobial Screening (MIC) [7]: 0.06 µg/mL
Antimicrobial Screening (MIC) [8]: 0.125 µg/mL
Antimicrobial Screening (MIC) [9]: 0.125 µg/mL
Antimicrobial Screening (MIC) [10]: 0.25 µg/mL
Antimicrobial Screening (MIC) [11]: 0.25 µg/mL
Antimicrobial Screening (MIC) [12]: 0.25 µg/mL
Antimicrobial Screening (MIC) [13]: 0.25 µg/mL
Antimicrobial Screening (MIC) [14]: 0.25 µg/mL
Antimicrobial Screening (MIC) [15]: 0.25 µg/mL
Antimicrobial Screening (MIC) [16]: 0.25 µg/mL
Antimicrobial Screening (MIC) [17]: 0.25 µg/mL
Antimicrobial Screening (MIC) [18]: 0.125 µg/mL
Antimicrobial Screening (MIC) [19]: 0.125 µg/mL
Antimicrobial Screening (MIC) [20]: 0.06 µg/mL
Antimicrobial Screening (MIC) [21]: 0.25 µg/mL
Antimicrobial Screening (MIC) [22]: 0.25 µg/mL
Antimicrobial Screening (MIC) [23]: 0.25 µg/mL
Antimicrobial Screening (MIC) [24]: 0.25 µg/mL
Antimicrobial Screening (MIC) [25]: 0.25 µg/mL
Antimicrobial Screening (MIC) [26]: 0.25 µg/mL
Antimicrobial Screening (MIC) [27]: 0.25 µg/mL
Antimicrobial Screening (MIC) [28]: 0.125 µg/mL

COC(=S)NC[C@H]1CN(c2ccc(N3CCN(C(=O)Cn4cnnn4)CC3)c(F)c2)C(=O)O1 [Example 72, (S)—O-Methyl (3-(4-(4-(2-(1H-tetrazol-1-yl)acetyl)piperazin-1-yl)-3-fluorophenyl)-2-oxooxazolidin-5-yl)methylcarbamothioate]
MIC ([1]; Staphylococcus haemolyticus, MRO02064, 35° C., read-out: Antimicrobial Screening (MIC)): 0.5 µg/mL (≈ 1.04 µM)
MIC ([2]; Staphylococcus saprophyticus, MRO02003, 35° C., read-out: Antimicrobial Screening (MIC)): 1 µg/mL (≈ 2.09 µM)
MIC ([3]; Staphylococcus epidermidis, MRO02002, 35° C., read-out: Antimicrobial Screening (MIC)): 0.5 µg/mL (≈ 1.04 µM)
MIC ([4]; Staphylococcus epidermidis, MRO02095, 35° C., read-out: Antimicrobial Screening (MIC)): 0.5 µg/mL (≈ 1.04 µM)
MIC ([5]; Staphylococcus epidermidis, MRO002046, 35° C., read-out: Antimicrobial Screening (MIC)): 0.5 µg/mL (≈ 1.04 µM)
MIC ([6]; Staphylococcus epidermidis, MRO02045, 35° C., read-out: Antimicrobial Screening (MIC)): 0.5 µg/mL (≈ 1.04 µM)
MIC ([7]; Moraxella catarrhalis, ATCC43617, 35° C., read-out: Antimicrobial Screening (MIC)): 2 µg/mL (≈ 4.18 µM)
MIC ([8]; Moraxella catarrhalis, ATCC43627, 35° C., read-out: Antimicrobial Screening (MIC)): 2 µg/mL (≈ 4.18 µM)
MIC ([9]; Moraxella catarrhalis, ATCC43628, 35° C., read-out: Antimicrobial Screening (MIC)): 2 µg/mL (≈ 4.18 µM)
MIC ([10]; Enterococcus faecalis, MRO04205, 35° C., read-out: Antimicrobial Screening (MIC)): 0.5 µg/mL (≈ 1.04 µM)
MIC ([11]; Enterococcus faecalis, MRO04035, 35° C., read-out: Antimicrobial Screening (MIC)): 0.5 µg/mL (≈ 1.04 µM)
MIC ([12]; Enterococcus faecalis, ATCC51299, 35° C., read-out: Antimicrobial Screening (MIC)): 0.5 µg/mL (≈ 1.04 µM)
MIC ([13]; Enterococcus faecalis, ATCC29212, 35° C., read-out: Antimicrobial Screening (MIC)): 0.5 µg/mL (≈ 1.04 µM)
MIC ([14]; Enterococcus faecalis, MRO04050, 35° C., read-out: Antimicrobial Screening (MIC)): 0.5 µg/mL (≈ 1.04 µM)
MIC ([15]; Enterococcus faecium, MRO04037, 35° C., read-out: Antimicrobial Screening (MIC)): 0.5 µg/mL (≈ 1.04 µM)
MIC ([16]; Enterococcus faecium, MRO04198, 35° C., read-out: Antimicrobial Screening (MIC)): 0.5 µg/mL (≈ 1.04 µM)
MIC ([17]; Enterococcus faecium, MRO04038, 35° C., read-out: Antimicrobial Screening (MIC)): 0.5 µg/mL (≈ 1.04 µM)
MIC ([18]; Enterococcus faecium, ATCC700221, 35° C., read-out: Antimicrobial Screening (MIC)): 0.5 µg/mL (≈ 1.04 µM)
MIC ([19]; Staphylococcus aureus, ATCC43300, 35° C., read-out: Antimicrobial Screening (MIC)): 1 µg/mL (≈ 2.09 µM)
MIC ([20]; Staphylococcus aureus, MRO002053, 35° C., read-out: Antimicrobial Screening (MIC)): 0.5 µg/mL (≈ 1.04 µM)
MIC ([21]; Staphylococcus aureus, MRO0003, 35° C., read-out: Antimicrobial Screening (MIC)): 1 µg/mL (≈ 2.09 µM)
MIC ([22]; Staphylococcus aureus, MRO0001, 35° C., read-out: Antimicrobial Screening (MIC)): 0.5 µg/mL (≈ 1.04 µM)
MIC ([23]; Staphylococcus aureus, MRO00048, 35° C., read-out: Antimicrobial Screening (MIC)): 0.5 µg/mL (≈ 1.04 µM)
MIC ([24]; Staphylococcus aureus, MRO00055, 35° C., read-out: Antimicrobial Screening (MIC)): 1 µg/mL (≈ 2.09 µM)
MIC ([25]; Staphylococcus aureus, ATCC29213, 35° C., read-out: Antimicrobial Screening (MIC)): 1 µg/mL (≈ 2.09 µM)
MIC ([26]; Staphylococcus aureus, MRO00013, 35° C., read-out: Antimicrobial Screening (MIC)): 1 µg/mL (≈ 2.09 µM)
MIC ([27]; Staphylococcus aureus, MRO00059, 35° C., read-out: Antimicrobial Screening (MIC)): 0.5 µg/mL (≈ 1.04 µM)
MIC ([28]; Staphylococcus aureus, MRO00030, 35° C., read-out: Antimicrobial Screening (MIC)): 0.5 µg/mL (≈ 1.04 µM)
